According to patent US20130059916A1, “BIGUANIDE COMPOUNDS AND ITS USE FOR TREATING CANCER” (priority 2010, published 2013):

Experiments:
[1] = tested on: human G361 cells; assay: Cell viability of human G361 cells, FIG. 2; assay type: cell-based; conditions: metformin 0 to 20 mM
From the text: AICAR [aminoimidazole carboxamide ribonucleotide] an AMPK agonist, is used as reference.

[2] = tested on: normal human melanocytes; assay: Cell viability of normal human melanocytes, FIG. 1; assay type: cell-based; conditions: 0 to 20 mM, 72 h and 96 h
Protocol: (§1) FIG. 1 discloses a study on viability cells of human melanomas cells (A375) in comparison to normal human melanocytes.
(§2) Doses of metformin used for this experiment are in a range between 0 to 20 mM at 72 h and 96 h.

[3] = tested on: AMPK; assay: Cell viability after AMPK disruption using si-RNA (Western Blot), FIG. 3; assay type: cell-based
[4] = tested on: A375 melanoma cells; assay: Mouse model of melanoma xenograft (A375), FIG. 4; assay type: in vivo, athymic nude mice; conditions: 2 mg/mouse/day by injection, after 23 days of treatment
[5] = tested on: melanoma cells; assay: TUNEL assay of mouse tumor sections, FIG. 4'; assay type: in vivo; conditions: tumor sections of metformin-treated mice
[6] = tested on: melanoma cells; assay: Cell death by FACS analysis of propidium iodide uptake, FIG. 1''; assay type: cell-based
Protocol: Cell death was measured by FACS analysis of propidium iodide uptake.

[7] = tested on: freshly human melanoma cells isolated from patients; assay: Cell viability of freshly isolated human melanoma cells from patients, FIG. 1'; assay type: cell-based; conditions: 0 to 10 mM, 72 h
Protocol: FIG. 1′ discloses a study on viability cells of freshly human melanoma cells isolated from patients.
Doses of metformin used for this experiment are in a range between 0 to 10 mM at 72 h.

[8] = tested on: human melanomas cells (A375); assay: Cell viability of human melanoma cells (A375), FIG. 1; assay type: cell-based; conditions: 0 to 20 mM, 72 h and 96 h
Protocol: as §1, §2

[9] = tested on: B16 melanoma cells; assay: Syngenic model, allograft of B16 melanoma cells, FIG. 4''; conditions: B16 allograft in C57B16 mice

For `NC(=O)c1ncn([C@@H]2O[C@H](CO)[C@@H](O)[C@H]2O)c1N` [AICAR, aminoimidazole carboxamide ribonucleotide], the “percentage of cell viability” value [1] was “no significative effect”.

For `CN(C)C(=N)NC(=N)N` [Metformin, N,N-dimethylimidodicarbonimidic diamide], the “effect on cell viability of melanocytes (normal cells)” value [2] was “no effect”, the “dependence of the effect on cell viability on AMPK” value [3] was “independent on AMPK” and the volume of melanoma [4] was “decreases significantly”. For the same molecule, the weight of melanoma [4] was “decreases significantly”, the “TUNEL-positive cells in the tumors” value [5] was “increase in TUNEL-positive cells” and the “cell death (propidium iodide uptake)” value [6] was “induces a dose dependent cell death”. For the same molecule, the “effect on cell viability of melanoma cells” value [7] was “dose dependent effect”, the “effect on cell viability of melanoma cells” value [8] was “dose dependent effect” and the volume of tumor [9] was “diminished”. For the same molecule, the weight of tumor [9] was “diminished” and the “percentage of cell viability” value [1] was “significant dose dependent decrease”.
